Source: PubChem BioAssay (NCI)
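Step 1: Grow cells in 96-well plates. Step 2: Expose to compound for 48 hours at 5 concentrations. Step 3: Interpolate endpoints linearly; if unreached, use highest concentration. Definition used: TGI = concentration required for complete inhibition of growth.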

Experiments:
Assay in all cases: NCI tumour cell line growth inhibition, 48 h
786-0 renal = test system: 786-0 renal
A498 renal = test system: A498 renal
A549 NSCLC = test system: A549 NSCLC
BT-549 breast = test system: BT-549 breast
CAKI-1 renal = test system: CAKI-1 renal
CCRF-CEM leukemia = test system: CCRF-CEM leukemia
COLO 205 colon = test system: COLO 205 colon
DLD-1 colon = test system: DLD-1 colon
DMS 114 small cell lung = test system: DMS 114 small cell lung
DMS 273 small cell lung = test system: DMS 273 small cell lung
DU-145 prostate = test system: DU-145 prostate
EKVX NSCLC = test system: EKVX NSCLC
HCC-2998 colon = test system: HCC-2998 colon
HCT-116 colon = test system: HCT-116 colon
HCT-15 colon = test system: HCT-15 colon
HL-60(TB) leukemia = test system: HL-60(TB) leukemia
HOP-18 NSCLC = test system: HOP-18 NSCLC
HOP-62 NSCLC = test system: HOP-62 NSCLC
HOP-92 NSCLC = test system: HOP-92 NSCLC
HS 578T breast = test system: HS 578T breast
HT29 colon = test system: HT29 colon
IGROV1 ovarian = test system: IGROV1 ovarian
K-562 leukemia = test system: K-562 leukemia
KM12 colon = test system: KM12 colon
KM20L2 colon = test system: KM20L2 colon
LOX IMVI melanoma = test system: LOX IMVI melanoma
LXFL 529 NSCLC = test system: LXFL 529 NSCLC
M14 melanoma = test system: M14 melanoma
M19-MEL melanoma = test system: M19-MEL melanoma
MALME-3M melanoma = test system: MALME-3M melanoma
MCF7 breast = test system: MCF7 breast
MDA-MB-231 breast = test system: MDA-MB-231 breast
MDA-MB-435 = test system: MDA-MB-435
MDA-N = test system: MDA-N
MOLT-4 leukemia = test system: MOLT-4 leukemia
NCI-H226 lung = test system: NCI-H226 lung
NCI-H23 lung = test system: NCI-H23 lung
NCI-H460 lung = test system: NCI-H460 lung
NCI-H522 lung = test system: NCI-H522 lung
OVCAR-3 ovarian = test system: OVCAR-3 ovarian
OVCAR-4 ovarian = test system: OVCAR-4 ovarian
OVCAR-5 ovarian = test system: OVCAR-5 ovarian
OVCAR-8 ovarian = test system: OVCAR-8 ovarian
PC-3 prostate = test system: PC-3 prostate
RPMI-8226 leukemia = test system: RPMI-8226 leukemia
RXF 393 renal = test system: RXF 393 renal
RXF-631 renal = test system: RXF-631 renal
SF-268 CNS = test system: SF-268 CNS
SF-295 CNS = test system: SF-295 CNS
SF-539 CNS = test system: SF-539 CNS
SK-MEL-2 melanoma = test system: SK-MEL-2 melanoma
SK-MEL-28 melanoma = test system: SK-MEL-28 melanoma
SK-MEL-5 melanoma = test system: SK-MEL-5 melanoma
SK-OV-3 ovarian = test system: SK-OV-3 ovarian
SN12C renal = test system: SN12C renal
SNB-19 CNS = test system: SNB-19 CNS
SNB-75 CNS = test system: SNB-75 CNS
SNB-78 CNS = test system: SNB-78 CNS
SR leukemia = test system: SR leukemia
SW-620 colon = test system: SW-620 colon
T-47D breast = test system: T-47D breast
U251 CNS = test system: U251 CNS
UACC-257 melanoma = test system: UACC-257 melanoma
UACC-62 melanoma = test system: UACC-62 melanoma
XF 498 CNS = test system: XF 498 CNS

## CN(C)CCN1C(=O)c2cccc3cc([N+](=O)[O-])cc(c23)C1=O
786-0 renal
  TGI: 8100 nM
A498 renal
  TGI: 386 nM
A549 NSCLC
  TGI: 397 nM
BT-549 breast
  TGI: 7620 nM
CAKI-1 renal
  TGI: 1760 nM
CCRF-CEM leukemia
  TGI: 798 nM
COLO 205 colon
  TGI: 9560 nM
DLD-1 colon
  TGI: 28400 nM
DMS 114 small cell lung
  TGI: 811 nM
DMS 273 small cell lung
  TGI: 557 nM
DU-145 prostate
  TGI: > 100000 nM
EKVX NSCLC
  TGI: 2680 nM
HCC-2998 colon
  TGI: 3560 nM
HCT-116 colon
  TGI: 6700 nM
HCT-15 colon
  TGI: 4200 nM
HL-60(TB) leukemia
  TGI: > 45300 nM
HOP-18 NSCLC
  TGI: 6400 nM
HOP-62 NSCLC
  TGI: 779 nM
HOP-92 NSCLC
  TGI: 1120 nM
HS 578T breast
  TGI: 4650 nM
HT29 colon
  TGI: 2800 nM
IGROV1 ovarian
  TGI: 4490 nM
K-562 leukemia
  TGI: 26500 nM
KM12 colon
  TGI: 4280 nM
KM20L2 colon
  TGI: 5630 nM
LOX IMVI melanoma
  TGI: 806 nM
LXFL 529 NSCLC
  TGI: 2800 nM
M14 melanoma
  TGI: 2140 nM
M19-MEL melanoma
  TGI: 1840 nM
MALME-3M melanoma
  TGI: 1840 nM
MCF7 breast
  TGI: 743 nM
MDA-MB-231 breast
  TGI: 14600 nM
MDA-MB-435
  TGI: 4660 nM
MDA-N
  TGI: 10500 nM
MOLT-4 leukemia
  TGI: 2040 nM
NCI-H226 lung
  TGI: 436 nM
NCI-H23 lung
  TGI: 1240 nM
NCI-H460 lung
  TGI: 384 nM
NCI-H522 lung
  TGI: 2120 nM
OVCAR-3 ovarian
  TGI: 6270 nM
OVCAR-4 ovarian
  TGI: 6370 nM
OVCAR-5 ovarian
  TGI: 5240 nM
OVCAR-8 ovarian
  TGI: 2020 nM
PC-3 prostate
  TGI: 3490 nM
RPMI-8226 leukemia
  TGI: 10200 nM
RXF 393 renal
  TGI: 923 nM
RXF-631 renal
  TGI: 3620 nM
SF-268 CNS
  TGI: 3120 nM
SF-295 CNS
  TGI: 1380 nM
SF-539 CNS
  TGI: 1320 nM
SK-MEL-2 melanoma
  TGI: 3140 nM
SK-MEL-28 melanoma
  TGI: 6850 nM
SK-MEL-5 melanoma
  TGI: 1370 nM
SK-OV-3 ovarian
  TGI: 806 nM
SN12C renal
  TGI: 1690 nM
SNB-19 CNS
  TGI: 2120 nM
SNB-75 CNS
  TGI: 1050 nM
SNB-78 CNS
  TGI: 15000 nM
SR leukemia
  TGI: 97000 nM
SW-620 colon
  TGI: 3700 nM
T-47D breast
  TGI: 29600 nM
U251 CNS
  TGI: 2000 nM
UACC-257 melanoma
  TGI: 2130 nM
UACC-62 melanoma
  TGI: 1030 nM
XF 498 CNS
  TGI: 2000 nM
